The text below walks through data of PubChem BioAssay AID489032 (Sanford-Burnham Center for Chemical Genomics, 2010).

Molecules are shown by their SMILES. The source made the active and inactive calls. No rule for the calls is given here. Some results are limits rather than exact numbers.

This assay has as its system UPR adaptive arm reporter cells, luciferase luminescence. Nature of the assay: activators of adaptive UPR signalling, dose response, cell-based, luciferase luminescence (AID 489032).
Broadly, the EC50 is the concentration giving half of the maximal effect. With `Oc1ccc(/C=N/Nc2nc(N3CCCC3)nc(N3CCCC3)n2)cc1O`, the EC50 is > 80 µM (inactive). In the case of `CCOC(=O)c1nnc(-c2ccccc2)nc1Sc1c(Cl)cccc1Cl` it was > 80 µM (inactive). In the case of `Oc1ccc(/C=N/Nc2cc(N3CCOCC3)nc(N3CCOCC3)n2)cc1O` it was > 80 µM (inactive). In the case of `O=C(COC(=O)/C=C/c1cn(-c2ccccc2)nc1-c1cccnc1)Nc1ccc(Cl)cc1Cl` it was > 80 µM (inactive); in that of `Cc1cc(NC(=O)CSc2ccc(-c3nc4cc(C)c(C)cc4[nH]3)cn2)no1`, > 80 µM (inactive); in that of `Cc1ccc2c(c1)C(c1ccc(N3CCOCC3)cc1)=NNC(c1cccs1)=N2`, 46.9 µM (inactive). `CC(C)N(C(=O)[C@H]1C[C@H](CC(=O)NCc2cccc(C(F)(F)F)c2)C(=O)N2CCc3c([nH]c4ccc(Cl)cc34)[C@]12C)C(C)C`: the EC50 is > 80 µM (inactive).

Consider `COc1ccc(-c2ccc(C#N)c(SCC(=O)Nc3sc4c(c3C#N)CCC4)n2)cc1OC`, for which the EC50 is > 80 µM (inactive). For `Cc1ccc(C)c(N=Cc2c(O)c3ccccc3oc2=O)c1` the value was 37.1 µM (inactive); for `C=CCN1C(=O)/C(=C2/Sc3ccc(OC)cc3N2C)SC1=Nc1cccc(O)c1`, > 80 µM (inactive). Take `C#CCOCCOCCOCCNc1nc(N2CCN(C(=O)CCCCCCCCCCNC(=O)[C@H](CCCCN)n3cc(C[C@@H](C)CC)nn3)CC2)nc(N2CCN(C(=O)CCCCCCCCCCNC(=O)[C@H](CCCN=C(N)N)n3cc(C[C@@H](C)CC)nn3)CC2)n1`: the EC50 was > 80 µM (inactive). In the case of `O=CC1=C(c2ccccc2)Oc2ccccc2O1` it was > 80 µM (inactive).

On to `Cc1ccc(Cn2c(SCC(=O)Nc3cc(C)on3)nc3ccccc3c2=O)cc1`, for which the EC50 is > 80 µM (inactive).

For `Clc1ccc(C2=Nn3c(nnc3-c3cc(-c4ccccc4)n[nH]3)SC2)cc1`, the EC50 is > 80 µM (inactive). For `O=C(/C=C/c1ccco1)NC(=S)Nc1ccc(O)c(-c2nc3ccccc3s2)c1` the value was 10.4 µM; for `COc1ccc(CCn2c(=S)[nH]c3cc(C(=O)NCc4ccco4)ccc3c2=O)cc1OC`, > 80 µM (inactive). In the case of `C=CCOc1ccc2cccc(/C=N/NC(=O)c3cc4cc([N+](=O)[O-])ccc4s3)c2c1`, the EC50 is 43.5 µM (inactive). As to `Cc1ccc(C(C(=O)NCc2ccco2)N(C(=O)CNC(=O)c2cccs2)c2c(C)cc(C)cc2C)cc1` (configuration not stated), the EC50 was > 80 µM (inactive). Regarding `CCCCCCCCCCOC(=O)Cn1c(COc2ccc(C)cc2)[n+](C)c2ccccc21`, the EC50 is > 80 µM (inactive). In the case of `COc1ccc(-c2nc3scc(-c4ccc(OC)c(OC)c4)c3c(=O)o2)cc1`, the EC50 was > 80 µM (inactive). For `CCCCCC(=O)Nc1ccc(C(=O)N/N=C/c2ccc([N+](=O)[O-])cc2)cc1` the value was > 80 µM (inactive). As for `COc1cc(/C=N/Nc2nc(Nc3ccc(C)cc3)nc(-n3nc(C)cc3C)n2)cc(OC)c1OC`, the EC50 was 19.7 µM. In the case of `Cc1ccc(NC(=O)c2c(C)nc3sc(C(=O)NC4CCCC4)c(N)c3c2-c2ccco2)c(C)c1` it was 48.4 µM (inactive); in that of `N#CCC(=O)N/N=C/c1cn(Cc2ccc3ccccc3c2)c2ccccc12`, 71 µM (inactive); in that of `COc1ccc(-c2cc(=O)oc3c(C)c(OC(=O)c4cccs4)ccc23)cc1`, > 80 µM (inactive). For `Cc1ccc(NC(=O)Cn2c(/C=C/c3ccccc3)nc3ccccc32)cc1C` the value was > 80 µM (inactive); for `CCN(CC)c1ccc(/C=C/[N+](=O)[O-])cc1`, 19.4 µM; for `CCOc1ccc(NC(=O)C(Cc2ccccc2)N2C(=O)c3cccc4cccc(c34)C2=O)cc1` (configuration not stated), > 80 µM (inactive). On to `CCc1sc2nc(SCC(=O)Nc3cc(C)on3)n(-c3cccc(OC)c3)c(=O)c2c1C`, for which the EC50 is > 80 µM (inactive). As for `Nc1nc(Nc2cccc(F)c2)nc2ccccc12`, the EC50 was 73.9 µM (inactive). In the case of `CCC(C)Nc1nc(N)c([N+](=O)[O-])c(NC2CCCCC2)n1` (configuration not stated) it was 55.9 µM (inactive); in that of `CCCn1c(Nc2nc3ccccc3n2C)nc2ccccc21`, > 80 µM (inactive); in that of `OCCNc1nc(Nc2ccc(Cl)c(Cl)c2)nc2ccccc12`, > 80 µM (inactive). For `CCN(CC)c1ccc(N=Cc2c(O)n(-c3ccc(Cl)cc3)c(=O)[nH]c2=O)cc1` the value was 22.7 µM (inactive); for `Cc1cc(NC(=O)c2cncc(Br)c2)ccc1NC(=O)c1cc2ccccc2o1`, > 80 µM (inactive); for `Cc1ccc2c(c1)C(=O)C(=O)N2Cc1ccc(Cl)cc1`, 57.2 µM (inactive).

As to `COC(=O)c1c(C)oc2ccc(N(C(=O)Oc3ccccc3)S(=O)(=O)c3ccc(Cl)c([N+](=O)[O-])c3)cc12`, the EC50 is 20.1 µM (inactive). For `CN(C)S(=O)(=O)c1ccc(N2CCCC2)c(C(=O)Nc2nccs2)c1` the value was 50 µM (inactive). For `CSc1ccccc1NC(=O)c1cc(-c2cccnc2)nc2ccc(Br)cc12` the value was > 80 µM (inactive). In the case of `OCCCn1c(C2CCCN2c2nc(-c3ccc(Cl)cc3)cs2)nc2cc(Cl)c(N3CCCCC3)cc21` (configuration not stated) it was > 80 µM (inactive); in that of `C/C(CC(C)(C)C1CCCCC1)=N\NC(N)=S`, > 80 µM (inactive).

Regarding `CCN(CC)c1ccc(N=Cc2c(O)n(Cc3ccccc3)c(=O)[nH]c2=O)cc1`, the EC50 was 62.5 µM (inactive). Take `COc1ccc2nc(C)cc(SCC(=O)N/N=C/c3cccc4ccccc34)c2c1`: the EC50 is 17.8 µM. On to `COc1ccc2nc(/C(C#N)=C\c3ccc(Oc4ccc([N+](=O)[O-])cn4)cc3)[nH]c2c1`, for which the EC50 is > 80 µM (inactive).

Regarding `CCc1ccc(OCCNc2cc(N3CCNC(C)C3)ccc2[N+](=O)[O-])cc1` (configuration not stated), the EC50 was 18.9 µM.

Regarding `COCc1cc(C)nc(OCC(=O)N/N=C/c2ccc(-c3cc([N+](=O)[O-])ccc3Cl)o2)c1C#N`, the EC50 was 13.5 µM. As to `CN(C)CC/C=C1\c2ccc(F)cc2Sc2cc(F)c(Cl)cc21`, the EC50 was 15.8 µM. In the case of `CCc1ccc(-n2c(SCC(=O)c3ccc4c(c3)NC(=O)CO4)nc3ccccc3c2=O)cc1`, the EC50 is > 80 µM (inactive).

Turning to `Cc1cc(NC(=O)CSc2nc3cc(Cl)ccc3c(=O)n2Cc2ccco2)no1`, the EC50 is > 80 µM (inactive).

Regarding `Cc1ccc(NS(=O)(=O)c2cc([N+](=O)[O-])ccc2N/N=C/c2sc(N3CCOCC3)nc2-c2ccccc2)c(C)c1`, the EC50 was > 80 µM (inactive). For the compound `COc1ccc2[nH]c3nc(SCc4nnc(-c5ccc(C)cc5)o4)nnc3c2c1`, the EC50 is 27.8 µM (inactive). In the case of `CCc1nc(N=Nc2c(O)[nH]c3ccccc23)c2c3c(sc2n1)CCC3` it was 16.1 µM; in that of `CC1=CC(C)(C)N2C(=O)C(=O)c3cc(OC(=O)c4ccco4)cc1c32`, 53.1 µM (inactive). In the case of `Cc1ccc(C(C)C)c(OCc2ccc(C(=O)N/N=C/c3ccc(O)c(O)c3)cc2)c1` it was 8.24 µM; in that of `COc1ccc(S(=O)(=O)N2c3cc(Cl)ccc3Oc3nc4ccccc4nc32)cc1`, > 80 µM (inactive). For `N#Cc1ccc(N/N=C/c2cn(-c3ccccc3)nc2-c2ccccc2)c([N+](=O)[O-])c1` the value was > 80 µM (inactive); for `Cc1cccc(NC(=O)/C(C#N)=C/c2cn(CC(=O)NCc3ccco3)c3ccccc23)c1C`, > 80 µM (inactive).
